Experimental data published in patent publication EP0652217A1, “N-substituted imidazole derivatives” (MITSUBISHI CHEMICAL CORPORATION, priority 1993, dated 1995).

Tests used:
Assay type in all cases: in vivo
golden syrian hamsters = experiment: Anti-hyperlipemic activity: inhibition of serum total cholesterol increase in cholesterol-fed hamsters; conditions: hamsters on feed with 1 % cholesterol and 0.5 % cholic acid
Procedure: Six-week old golden syrian hamsters (4 to 5 animals/group) were used.
Untreated control group received normal solid feed (MF, Oriental Kobo Kogyo), while control and a drug-treated groups received feed containing 1 % cholesterol and 0.5 % cholic acid (manufactured by Oriental Kobo Kogyo) to induce […].
The test compound was suspended in 1.0 % Tween 80. The solvent or the test compound was started to be orally administered (10 ml/kg, once a day, for 5 days) as soon as feed was changed to cholesterol-containing feed. Alter final administration, blood was drawn from abdominal descendens main vein while anesthetized with nembutal. Serum was collected and total cholesterol (TC) in serum was determined according to enzymatic method using assay kit (Kyowa Medics).

[1] = test system: Spontaneously hypertensive rats (SHR); experiment: Antihypertensive activity: blood pressure lowering in SHR; conditions: oral, suspended in 1.0 % Tween 80
Procedure: Spontaneously hypertensive rats (SHR) were anesthetized with ether and polyethylene catheter for measurement of blood pressure was inserted in ventral aortas via caudal artery on the day before these experiments, and placed in separate cages and their tails were fixed. Under aparalytic conditions, blood pressure of semi-restrained rats was measured using a pressure transducer (TP-400T, manufactured by Nippon Koden). Heart rate was determined from pulse wave measured by a cardiotachometer (AT0691G, manufactured by Nippon Koden). On the test day, the test compounds were administered to rats after blood pressure and heart rate were confirmed to become sufficiently stable.
The test compounds were suspended in Tween 80 (1.0 % solution, 10 ml/kg) and orally administered to SHRs.

KK-A^v mice = experiment: Activity to lower blood sugar (hypoglycaemic activity) in KK-A^v mice; conditions: serum
Procedure: Ten-week old KK-A^v mice (4 - 6 animals/group) were used.
The solvent (1 % Tween 80 solution) or a suspension of the test compound was orally administered once a day for 11 days (10 ml/kg).
Before administration and after the final administration, blood was drawn from caudal vein, and serum was collected and blood sugar level in serum was determined.
There was no difference between blood sugar levels before and after administration for control group. The test compound provided statistically significant decrease in blood sugar level for KK-A^v mice compared with the value before administration. The change in weight of test compound-treated group during oral administration was almost same as that of the control group.

[2] = oral 30 mg/kg once a day for 5 days
[3] = oral 100 mg/kg once a day for 5 days

| Structure (SMILES) | Inhibition of TC increase (golden syrian hamsters; [2]) [%] | Inhibition of TC increase (golden syrian hamsters; [3]) [%] | Maximum fall in blood pressure ([1]; dose 10 mg/kg) [mmHg] | other results |
| --- | --- | --- | --- | --- |
| O=C(NCCCn1ccnc1)c1ccc2c(c1)OCO2 [Compound 13, N-[3-(1-imidazolyl)propyl]-3,4-methylenedioxybenzamide] | 26 | 60 | – | – |
| c1cc(OCCCn2cnc3ccccc32)c2c(c1)OCO2 [Compound 6, 4-[3-(1-benzimidazolyl)propoxy]-1,3-benzodioxole] | – | – | -20 | – |
| c1cc(OCCCn2ccnc2)c2c(c1)OCO2 [Compound 1, 4-[3-(1-imidazolyl)propoxy]-1,3-benzodioxole] | 80 | 100 | – | Blood sugar level, After administration (KK-A^v mice; after oral 30 mg/kg once a day for 11 days, P < 0.05 vs value before administration): 532.2 ± 23.9; Blood sugar level, Before administration (KK-A^v mice; baseline before administration, 30 mg/kg group): 676.4 ± 33.7 |
| O=C(NCCCn1ccnc1)c1ccc2c(c1)OCCO2 [Compound 16, N-[3-(1-imidazolyl)propyl]-1,4-benzodioxane-6-carboxamide] | – | 79 | – | Maximum fall in blood pressure ([1]; dose 30 mg/kg): -34.3 mmHg |
| c1cc(OCCCCCn2ccnc2)c2c(c1)OCO2 [Compound 8, 4-[5-(1-imidazolyl)pentoxy]-1,3-benzodioxole] | – | – | -25 | – |
| Clc1ncn(CCCOc2cccc3c2OCO3)c1Cl [Compound 5, 4-[3-(4,5-dichloro-1-imidazolyl)propoxy]-1,3-benzodioxole] | – | – | -20 | – |
| N#Cc1ncn(CCCOc2cccc3c2OCO3)c1C#N [Compound 4, 4-[3-(4,5-dicyano-1-imidazolyl)propoxy]-1,3-benzodioxole] | – | – | -20 | – |
| c1cc(OCCCCn2ccnc2)c2c(c1)OCO2 [Compound 7, 4-[4-(1-imidazolyl)butoxy]-1,3-benzodioxole] | 38 | – | -60 | – |
